{"source": "patent US10258291B2", "about": "“Systems and methods for evaluation of neuropathologies” (The Regents of the University of California, priority 2012, dated 2019)", "key": {"[1]": {"test_system": "rhesus macaques (Macaca mulatta)", "experiment": "Mismatch negativity (MMN) ERP in macaque EEG, auditory oddball paradigm, under ketamine, saline and 5 h post-ketamine", "assay_type": "in vivo", "description": "(§1) In exemplary implementations of the disclosed technology to assess the efficacy of a treatment for a neuropsychiatric disorder, two adult male rhesus macaques (Macaca mulatta), e.g., 6 and 7 years old, were used. All procedures and animal care were approved by the Salk Institute Animal Care and Use Committee and carried out in accordance with the US National Institutes of Health Guide for the Care and Use of Laboratory Animals.\n(§2) The exemplary stimuli presentation structure included a passive auditory intensity oddball paradigm to present different intensity tones to subjects sitting in an isolated, dimly lit room during the implementations. For example, the auditory stimuli included 100 ms (e.g., 10 ms rise/fall) pure sinusoidal tones (e.g., 1500 Hz) of either a low or a high intensity. Frequent (standard) and infrequent (deviant) stimuli were presented 80% and 20% of the time, respectively, as depicted in FIG. 4. The inter-stimulus interval was 700 ms. For example, twelve hundred standard and three hundred deviant stimuli were presented in each recording session. For example, both high-deviant (e.g., low-standard) and low-deviant (e.g., high-standard) conditions were used, e.g., to allow comparison of the responses to identical stimuli (e.g., low or high) in different contexts (e.g., standard or deviant).\n(§3) For example, EEG scalp recordings were acquired with the Vision Recorder software using a BrainAmpMR system. An exemplary custom-designed 22-channel NHP EEG cap with AgCl electrodes was developed and used for the non-human primate subject data collection (e.g., PCB Ribbon Cable for BrainCap-MR with 5 k resistors; BrainCap MR Box 1.2; sintered ring electrodes with 1.5 mm touchproof safety socket termination and 120 cm heavy-duty leadwire).\n(§4) The exemplary EEG data collection technique for the NHP subjects included the following preparation steps. […]\n(§5) The exemplary EEG data was analyzed using Analyzer 2.0 software. […]"}, "[2]": {"test_system": "rhesus macaques (Macaca mulatta)", "experiment": "P300 (P3) ERP in macaque EEG, auditory oddball paradigm, under ketamine, saline and 5 h post-ketamine", "assay_type": "in vivo", "description": "as §1, §2, §3, §4, §5"}, "[3]": {"details": "ketamine, saline, 5 h post-ketamine"}}, "note": "“Also recorded” adds a separate entry of the source."}
{"smiles": "CNC1(c2ccccc2Cl)CCCCC1=O", "note": "(stereo not drawn) [ketamine]", "values": [{"measurement": "Effect of ketamine on MMN 5 h after infusion", "setting": "[1]; 5 h-post ketamine vs. saline F(1,290)=0.20, p=0.652, ketamine vs. 5 h-post ketamine F(1,403)=7.97, p=0.005", "result": "no longer significant; also recorded: full recovery"}, {"measurement": "MMN amplitude, ketamine vs. saline", "setting": "[1]; acute subanesthetic ketamine infusion 1 mg/Kg, vs. vehicle saline, F(1,290)=4.47, p=0.035, Cz electrode", "result": "significant reduction"}, {"measurement": "MMN latency differences across conditions", "setting": "[1]; [3]", "result": "No significant latency differences"}, {"measurement": "Effect of ketamine on P300 (P3) 5 h after infusion", "setting": "[2]; 5 h-post ketamine vs. saline F(1,301)=0.06, p=0.803, ketamine vs. 5 h-post ketamine F(1,411)=44.34, p=0.000", "result": "no longer significant; also recorded: full recovery"}, {"measurement": "P300 amplitude, ketamine vs. saline", "setting": "[2]; acute subanesthetic ketamine infusion 1 mg/Kg, vs. vehicle saline, F(1,301)=27.73, p=0.000, Cz electrode", "result": "significant reduction"}, {"measurement": "P300 latency differences across conditions", "setting": "[2]; [3]", "result": "No significant latency differences"}]}
